From ChEMBL document CHEMBL4371067, “Discovery of N-substituted 7-azaindoles as Pan-PIM kinases inhibitors - Lead optimization - Part III” (Bioorg Med Chem Lett, 2019)
In brackets after ≈: the same amount, converted by molar mass. Each block holds one compound with its values, some of them ahead of it.

How the values were obtained:
[1] = Permeability in human Caco2/TC7 cells at 5 uM; assay type: ADME, cell-based; details: Caco-2, read-out: permeability
[2] = target: T1, hERG (KCNH2) (Homo sapiens, UniProt Q12809); assay: Inhibition of human ERG at 10 uM relative to control
[3] = system: KG-1; assay: Antiproliferative activity against human KG1 cells; assay type: functional, cell-based; details: Homo sapiens, KG-1
[4] = Clearance in human liver microsomes assessed as drug extraction at 5 uM; assay type: ADME, Microsome; details: liver microsomes, read-out: CLH
[5] = target: Serine/threonine-protein kinase PIM (Homo sapiens, UniProt P11309+Q9P1W9+Q86V86); assay: Inhibition of PIM in human KG1 cells assessed as reduction in pS6 level; assay type: cell-based
[6] = target: Serine/threonine-protein kinase pim-1 (Homo sapiens, UniProt P11309); assay: Inhibition of PIM1 (unknown origin) assessed as reduction in BAD phosphorylation at Ser-112 residue by TR-FRET assay
[7] = Efflux ratio of permeability in human Caco2/TC7 cells at 5 uM; assay type: ADME, cell-based; details: Caco-2
[8] = Thermodynamic solubility in pH 7.4 solution; assay type: physicochemical; details: buffer, read-out: Therm_solubility
[9] = target: Serine/threonine-protein kinase pim-2 (Homo sapiens, UniProt Q9P1W9); assay: Inhibition of PIM2 (unknown origin) assessed as reduction in BAD phosphorylation at Ser-112 residue by TR-FRET assay
[10] = target: T1, hERG (KCNH2); assay: Inhibition of human ERG at 1 uM relative to control
[11] = Oral bioavailability in rat at 10 mg/kg administered as single dose; assay type: ADME, organism-based; details: in vivo
[12] = Cmax in nude mouse xenografted with human KG1 cells at 25 mg/kg, po bid for 18 days measured at 8 hrs post last dose; assay type: ADME, organism-based; design: dose 25 mg/kg, route oral; details: in vivo
[13] = Clearance in mouse liver microsomes assessed as drug extraction at 5 uM; assay type: ADME, Microsome; details: liver microsomes, read-out: CLH
[14] = system: Mus musculus; assay: In vivo inhibition of PIM in mouse xenografted with human KG1 cells assessed as reduction in phosphorylated BAD level at 25 mg/kg, po administered as single dose and measured up to 24 hrs post dose relative to control; assay type: functional; details: KG-1, po
[15] = target: Cyclin-dependent kinase 3 (Homo sapiens) (UniProt Q00526); assay: Inhibition of CDK3 (unknown origin) at 1 uM relative to control
[16] = target: Voltage-gated inwardly rectifying potassium channel KCNH2 (Homo sapiens, UniProt Q12809); assay: Inhibition of human ERG
[17] = system: Mus musculus; assay: In vivo inhibition of PIM in mouse xenografted with human KG1 cells assessed as reduction in phosphorylated BAD level at 25 mg/kg, po administered as single dose and measured at 8 hrs post dose relative to control; assay type: functional; details: KG-1, po
[18] = target: Glycogen synthase kinase-3 beta (Homo sapiens) (UniProt P49841); assay: Inhibition of GSK3beta (unknown origin) at 1 uM relative to control
[19] = target: Cyclin-dependent kinase 1 (Homo sapiens) (UniProt P06493); assay: Inhibition of CDK1 (unknown origin) at 0.1 uM relative to control
[20] = target: T2, Dual specificity tyrosine-phosphorylation-regulated kinase 3 (Homo sapiens) (UniProt O43781); assay: Inhibition of DYRK3 (unknown origin) at 0.1 uM relative to control
T2 sequence (whole entry): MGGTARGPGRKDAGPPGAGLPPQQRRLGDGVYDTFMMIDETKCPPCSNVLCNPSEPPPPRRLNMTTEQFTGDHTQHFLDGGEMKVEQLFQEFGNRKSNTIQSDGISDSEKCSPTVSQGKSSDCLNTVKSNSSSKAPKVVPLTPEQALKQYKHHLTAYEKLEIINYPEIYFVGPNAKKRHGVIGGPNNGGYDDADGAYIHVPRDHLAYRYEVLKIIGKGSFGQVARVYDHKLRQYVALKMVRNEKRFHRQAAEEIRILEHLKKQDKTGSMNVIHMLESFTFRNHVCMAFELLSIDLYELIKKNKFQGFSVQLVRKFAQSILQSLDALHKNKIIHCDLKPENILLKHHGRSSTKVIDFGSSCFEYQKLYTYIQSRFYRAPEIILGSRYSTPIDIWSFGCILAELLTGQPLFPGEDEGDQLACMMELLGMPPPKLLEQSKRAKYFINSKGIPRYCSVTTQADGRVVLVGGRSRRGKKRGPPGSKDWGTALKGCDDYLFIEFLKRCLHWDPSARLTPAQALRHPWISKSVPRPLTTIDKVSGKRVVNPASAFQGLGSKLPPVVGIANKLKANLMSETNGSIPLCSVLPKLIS

[21] = Drug uptake in tumor of mouse xenografted with human KG1 cells at 25 mg/kg, po administered as single dose and measured at 8 hrs post dose; assay type: ADME, organism-based, Neoplasm; details: read-out: Drug uptake
[22] = target: Glycogen synthase kinase-3 alpha (Homo sapiens) (UniProt P49840); assay: Inhibition of GSK3alpha (unknown origin) at 1 uM relative to control
[23] = Cmax in rat at 10 mg/kg, po administered as single dose; assay type: ADME, organism-based; design: dose 10 mg/kg, route oral; details: in vivo
[24] = system: KG-1; assay: Antitumor activity against human KG1 cells xenografted in nude mouse assessed as tumor growth at 50 mg/kg, po bid for 18 days relative to control; assay type: functional
[25] = target: Cyclin-dependent kinase 3 (Homo sapiens) (UniProt Q00526); assay: Inhibition of CDK3 (unknown origin) at 0.1 uM relative to control
[26] = target: Ribosomal protein S6 kinase alpha-2 (Homo sapiens) (UniProt Q15349); assay: Inhibition of RSK3 (unknown origin) at 0.1 uM relative to control
[27] = Half life in rat at 3 mg/kg, iv administered as single dose; assay type: ADME, organism-based; details: in vivo
[28] = Plasma concentration in mouse xenografted with human KG1 cells at 25 mg/kg, po administered as single dose and measured at 24 hrs post dose; assay type: ADME, organism-based
[29] = Clearance in rat at 3 mg/kg, iv administered as single dose; assay type: ADME, organism-based; details: in vivo
[30] = target: T2, Dual specificity tyrosine-phosphorylation-regulated kinase 3 (Homo sapiens); assay: Inhibition of DYRK3 (unknown origin) at 1 uM relative to control
[31] = target: Cyclin-dependent kinase 1 (Homo sapiens) (UniProt P06493); assay: Inhibition of CDK1 (unknown origin) at 1 uM relative to control
[32] = system: KG-1; assay: Antitumor activity against human KG1 cells xenografted in nude mouse assessed as tumor growth at 25 mg/kg, po bid for 18 days relative to control; assay type: functional
[33] = Protein binding in mouse plasma; assay type: ADME, cell-free; details: read-out: PPB (converted)
[34] = AUC (0 to infinity) in rat at 3 mg/kg, iv administered as single dose; assay type: ADME, organism-based; design: dose 3 mg/kg, route intravenous, time infinity; details: in vivo
[35] = system: KG-1; assay: Antitumor activity against human KG1 cells xenografted in nude mouse assessed as tumor growth at 12.5 mg/kg, po bid for 18 days relative to control; assay type: functional
[36] = target: Glycogen synthase kinase-3 beta (Homo sapiens) (UniProt P49841); assay: Inhibition of GSK3beta (unknown origin) at 0.1 uM relative to control
[37] = target: Cyclin-dependent kinase 2 (Homo sapiens) (UniProt P24941); assay: Inhibition of CDK2 (unknown origin) at 0.1 uM relative to control
[38] = target: Ribosomal protein S6 kinase alpha-2 (Homo sapiens) (UniProt Q15349); assay: Inhibition of RSK3 (unknown origin) at 1 uM relative to control
[39] = target: Cyclin-dependent kinase 5 (Homo sapiens) (UniProt Q00535); assay: Inhibition of CDK5 (unknown origin) at 0.1 uM relative to control
[40] = Drug uptake in tumor of mouse xenografted with human KG1 cells at 25 mg/kg, po administered as single dose and measured at 24 hrs post dose; assay type: ADME, organism-based, Neoplasm; details: read-out: Drug uptake
[41] = Volume of distribution at steady state in rat at 3 mg/kg, iv administered as single dose; assay type: ADME, organism-based; details: in vivo, read-out: Vdss
[42] = Cmax in nude mouse xenografted with human KG1 cells at 12.5 mg/kg, po bid for 18 days measured at 8 hrs post last dose; assay type: ADME, organism-based; design: dose 12.5 mg/kg, route oral; details: in vivo
[43] = target: Glycogen synthase kinase-3 alpha (Homo sapiens) (UniProt P49840); assay: Inhibition of GSK3alpha (unknown origin) at 0.1 uM relative to control
[44] = Plasma concentration in mouse xenografted with human KG1 cells at 25 mg/kg, po administered as single dose and measured at 8 hrs post dose; assay type: ADME, organism-based
[45] = target: Cyclin-dependent kinase 2 (Homo sapiens) (UniProt P24941); assay: Inhibition of CDK2 (unknown origin) at 1 uM relative to control
[46] = Half life in rat at 10 mg/kg, po administered as single dose; assay type: ADME, organism-based; details: in vivo
[47] = Toxicity in nude mouse xenografted with human KG1 cells assessed as body weight loss at 12.5 to 50 mg/kg, po bid for 18 days relative to control; assay type: organism-based; details: in vivo, 432 h
[48] = Cmax in nude mouse xenografted with human KG1 cells at 50 mg/kg, po bid for 18 days measured at 8 hrs post last dose; assay type: ADME, organism-based; design: dose 50 mg/kg, route oral; details: in vivo
[49] = target: Cyclin-dependent kinase 5 (Homo sapiens) (UniProt Q00535); assay: Inhibition of CDK5 (unknown origin) at 1 uM relative to control
[50] = AUC (0 to infinity) in rat at 10 mg/kg, po administered as single dose; assay type: ADME, organism-based; design: dose 10 mg/kg, route oral, time infinity; details: in vivo

Papp at 5 µM [1]: 0.34 ×10⁻⁶ cm/s
hepatic extraction ratio at 5 µM [4]: 0
EC50 [5]: 13 nM
IC50 [6]: 1.1 nM
Ki [6]: 0.7 nM
efflux ratio at 5 µM [7]: 37
solubility thermodynamic [8]: 206 µM (≈ 78.5 µg/mL)
IC50 [9]: 9.3 nM
Structure (SMILES): CC(O)C#Cc1c(Cl)c2c(Cl)cc(C(N)=O)nc2n1[C@H]1CCCNC1 (some centres undefined)
inhibition at 10 µM [2]: 20%
EC50 [3]: 147 nM
inhibition at 1 µM [10]: 9%

bioavailability [11]: 46%
Cmax [12]: 320 nM
hepatic extraction ratio at 5 µM [13]: 0.5
inhibition [15]: 73%
Papp at 5 µM [1]: 4.1 ×10⁻⁶ cm/s
inhibition [18]: 90%
inhibition [19]: 14%
inhibition [20]: 15%
concentration at 8 h [21]: 24 µM
inhibition [22]: 81%
Cmax [23]: 92 ng/mL
inhibition [25]: 24%
inhibition [26]: 20%
half-life [27]: 165 min
concentration at 24 h [28]: 60 nM
hepatic extraction ratio at 5 µM [4]: 0.23
clearance [29]: 113 mL/min/kg
inhibition [30]: 68%
inhibition [31]: 51%
EC50 [5]: 27 nM
IC50 [6]: 0.8 nM
Ki [6]: 0.4 nM
fraction unbound [33]: 0.02
AUC(0-inf) [34]: 405 ng·h/mL
inhibition [36]: 48%
inhibition [37]: 26%
solubility thermodynamic [8]: 86 µM (≈ 34 µg/mL)
IC50 [9]: 5.1 nM
inhibition [38]: 54%
inhibition [39]: 88%
concentration at 24 h [40]: 7.9 µM
Vd [41]: 18.6 L/kg
Cmax [42]: 140 nM
inhibition [43]: 23%
concentration at 8 h [44]: 920 nM
inhibition [45]: 71%
half-life [46]: 215 min
Cmax [48]: 520 nM
inhibition [49]: 89%
AUC(0-inf) [50]: 643 ng·h/mL
Structure (SMILES): COCCC#Cc1c(Cl)c2c(Cl)cc(C(N)=O)nc2n1[C@H]1CCCNC1
inhibition in vivo at 25 mg/kg [14]: 56%
IC50 [16]: 3000 nM
inhibition in vivo at 25 mg/kg [17]: ≤ 64%
EC50 [3]: 39 nM
T/C [24]: 33%
T/C [32]: 56%
T/C [35]: 60%
Activity [47]: < 10%
